Experimental data: paper PMC8954547, “Nonpeptidic Z360-Analogs Tagged with Trivalent Radiometals as Anti-CCK2R Cancer Theranostic Agents: A Preclinical Study” (Pharmaceutics, 2022)

How the values were obtained:
[1] = tested on: HEK293-CCK2i4svR cells; experiment: Radioligand uptake and internalization in HEK293-CCK2i4svR cells; assay type: cell-based, human
How it was run: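 Cells incubated at 37 °C with 250 fmol radioligand in DMEM/1% FBS for 1 h ([111In]In-GAS1/2/3 also 15, 30 min, 2 h). Acid wash (glycine pH 2.8) gave membrane-bound and 1 N NaOH lysis gave internalized fractions, gamma-counted. Specific values (minus 1 µM DG2 nonspecific) as % of added activity per well.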

[2] = Radioligand stability in mice (radio-HPLC of blood and urine); assay type: in vivo; conditions: mean ± SD
How it was run: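 Male Swiss albino mice (n=3) given 2.5–3 nmol radioligand i.v. via tail vein in saline/EtOH 9/1. Blood at 5 min and urine at 30 min pi, EDTA-treated on ice, MeCN-deproteinised, analysed by radio-RP-HPLC; value is mean percent intact radioligand ± SD.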

**Q.** What does the source list for `CC(C)(C)C(=O)CN1C(=O)[C@H](NC(=O)Nc2cccc(C(=O)NCCOCCOCCOCCNC(=O)[C@H](CCC(=O)O)NC(=O)CCC(C(=O)O)N3CCN(CC(=O)[O-])CCN(CC(=O)[O-])CCN(CC(=O)[O-])CC3)c2)CN(C2CCCCC2)c2ccccc21.[177Lu+3]` (stereo in doubt) [[^177Lu]Lu-GAS3]?
**A.** Internalized to membrane-bound ratio [1]: 2.8; Cell uptake (internalized + membrane-bound) ([1]; 1 h 37 °C, specific, of total added activity): 7.65 ± 1.31%; Intact radioligand in blood ([2]; mice blood collected 5 min pi): 95.8 ± 2.0 (3) %; Intact radioligand in urine ([2]; mice urine collected 30 min pi): 88.1 ± 0.4 (3) %
